Laboratory results taken from patent EP2468746A1, “Benzothiazinone compounds and their use as anti-tuberculosis agents” (priority 2010, dated 2012).
≈ marks a conversion by molar mass, not a printed value. Where “and” joins values, the source holds several entries; their conditions need not be identical. Identical values can stand only once. Like-named read-outs stand apart in the source and are kept apart here.

How the values were obtained:
mycobacteria = conditions: comparison values, strain not named; cited from earlier work
M smeg 5G987 = assay: MIC assay, broth microdilution with resazurin; type: cell-based, Mycobacterium smegmatis; conditions: for MIC: Mycolicibacterium smegmatis
Procedure: (§1) The protocol used is based upon that detailed by the CLSI (Clinical and Laboratory Standards Institute (CLSI) 2006. Methods for Dilution Antimicrobial Susceptibility Tests for Bacteria that Grow Aerobically; Approved Standard. 7th edn. Document M7-A6. Clinical and Laboratory Standards Institute, Wayne, PA.).
(§2) The compounds are dissolved in DSMO in a concentration of 1 mg/ml and further diluted in water to achieve the final concentration, which is used as the highest concentration for determination of MIC. This highest concentration is filled in the first row of the microtiter plate and further diluted in the culture medium for the mycobacteria (Mueller-Hinton Broth and Middlebrook 7H9 broth). All solutions are freshly prepared under sterile conditions.
(§3) Ciprofloxacin, Isoniazid and Rifampicin can be used as reference compounds for control of the assay as well as a solvent control.
(§4) Minimal inhibitory concentrations (MIC) are determined according to the CLSI guidelines using the broth microdilution method. 50 µl of the compound solution are serially diluted directly in the microtiter plate by factor two with MHB or 7H9 media. Then the wells are inocalated with 50 µl of test organisms in MHB/7H9 to give a final concentration of 5x10^5 CFU/ml. After that the microtiter plates are incubated at 37°C for 48 h. Then 30 µl of resazurin solution is added to each well and plates are allowed to incubate at 37°C for additional 24 hrs. A change from blue to pink colour indicates reduction of resazurin and therefore bacterial growth. The MIC is defined as the lowest drug concentration that prevents this colour change.
(§5) Resazurin salt powder (Sigma) is prepared at 0.01 % (wt/vol) in distilled water, sterilized by filtration through a 0.22 µm membrane and stored at 4°C for a week.

M aurum SB66 = assay: MIC assay, broth microdilution with resazurin; type: cell-based; conditions: for activity against M. aureum strain SB66: strain resistant against agents that target decaprenylphosporyl-β-D-ribose 2'-epimerase
Procedure: as §1, §2, §3, §4, §5

M fort B = assay: MIC assay, broth microdilution with resazurin; type: cell-based; conditions: for MIC: read-out: MIC M fort B
Procedure: as §1, §2, §3, §4, §5

M vaccae 10670 = assay: MIC assay, broth microdilution with resazurin; type: cell-based
Procedure: as §1, §2, §3, §4, §5

[1] = test system: Mycobacterium smegmatis, ATCC 700084; assay: MIC assay, broth microdilution with resazurin; type: cell-based; conditions: Mycolicibacterium smegmatis, ATCC700084; head carries superscript IMB; read-out: MIC M smeg 700084
Procedure: as §1, §2, §3, §4, §5

M tb MDR (BACTEC) = assay: microbe, parasite or virus in culture; type: cell-based, M. tuberculosis; conditions: for MIC: Mycobacterium tuberculosis
HUVEC = type: cell-based
Procedure: (§6) Test cells (see Table below for details) are seeded as 1x10^4 cells per well in a clear 96 well plate in a final volume of 100 µl in media. Cells are incubated for 24 hours at 37°C, 5% CO2 to allow cells to attach to the plates.
(§7) The compounds of the present invention are added in triplicate in a range of concentrations. For compound A e.g., the concentration started from 100µM,...and then 2-fold diluted to 0.78µM. Colistin and Tamoxifen were applied as controls.
(§8) The cells are incubated for 24 hours at 37°C, 5% CO2. MTT (3-(4,5-Dimethylthiazol-2-yl)-2,5-diphenyltetrazolium bromide) (Sigma) (dissolved in PBS) is added to each well to a final concentration of 0.4 mg/mL. The plate is then incubated for 1 hours at 37°C, 5% CO2. Media is removed, and crystals are resuspended in 60 µl of DMSO. Shaking the plate at room temperature for 10 minutes dissolves the formazan crystals, and the absorbance is then read at 570 nm.
(§9) Results are presented as the average percentage of control ± SD for each set of duplicate wells using the following equation: Percent Viability = (ABSTEST - ABS5%DMSO/ / ABSUNTREATED -ABS5%DMSO)*100. A 1% DMSO 'vehicle' control is also included to monitor the effect of DMSO on the cells (all pure compounds are diluted in 10 % DMSO, so final assay concentration is 1%).

K-562 = type: cell-based
Procedure: as §6, §7, §8, §9

HEK293 = assay: Cytotoxicity assay (MTT); type: cell-based; conditions: 24 hours, read-out: CytoTox HEK293 (CC50)
Procedure: as §6, §7, §8, §9

HeLa = assay: Cytotoxicity assay (MTT); type: cell-based; conditions: 24 hours, read-out: CytoTox HeLa (CC50)
Procedure: as §6, §7, §8, §9

HepG2 = assay: Cytotoxicity assay (MTT); type: cell-based; conditions: 24 hours, read-out: CytoTox HepG2 (CC50)
Procedure: as §6, §7, §8, §9

Stability in plasma (H) = conditions: first value of the cell
Stability in plasma (M) = conditions: second value of the cell
Cytotoxicity assay (MTT) = type: cell-based; conditions: human
Procedure: as §6, §7, §8, §9

M. tuberculosis H37Rv = assay: BTZ efficacy in the acute animal model (mouse infection); type: in vivo; conditions: BALB/c mice, 5 x 10^6 CFU, gavage 37.5 or 300 mg per kg, once daily, 5 times/week, four weeks
Procedure: BTZ efficacy in vivo can be determined in a standard mouse infection model according to e.g. the following protocol. BALB/c mice are infected with M. tuberculosis H37Rv at a bacillary load of 5 x 10^6 CFU by injection into the eye venous sinus, 10 BALB/c mice per group. The first day of the treatment is day 8 after the infection. Mice are dosed by gavage with 37.5, or 300 mg of BTZ, per kg body weight, in carboxymethyl cellulose formulation (0.25%), once daily, 5 times/week, for four weeks. Negative control mice died 25-28 days after infection.

physchem = conditions: 20 °C, pH 7.4, aqueous buffer, kinetic from dmso stock
[2] = 5G987, read-out: MIC M smeg 5G987

In the case of `NNC(=O)c1ccncc1` [isoniazid], the “MIC of the existing TB drugs” value (mycobacteria) is given as 0.02 to 0.2 µg/mL.

For `CC[C@@H](CO)NCCN[C@@H](CC)CO` [ethambutol], the “MIC of the existing TB drugs” value (mycobacteria) is listed as 1 to 5 µg/mL.

With `CC1COC2(CCN(c3nc(=O)c4cc(C(F)(F)F)cc([N+](=O)[O-])c4s3)CC2)O1` (stereo not shown) [Cpd 1 of WO 2007/134625, reference compound] the “MIC M smeg 5G987” value (M smeg 5G987) was 0.00312 µg/mL (≈ 0.00723 µM), the “MIC M aurum SB66” value (M aurum SB66) was greater than 100 µg/mL and the “activity against M. aureum strain SB66” value (M aurum SB66) was “neither compound A nor the Reference compound I are active”. For the same compound, the “MIC M fort B” value (M fort B) was 0.00156 µg/mL (≈ 0.00362 µM), the MIC (M vaccae 10670) was 0.0004 µg/mL (≈ 0.000927 µM) and the MIC [1] was 0.008 µg/mL (≈ 0.0185 µM). For the same compound, the “MIC M tb MDR (BACTEC)” value (M tb MDR (BACTEC)) was no more than 0.015 µg/mL, the “CytoTox HUVEC (GC50)” value (HUVEC) was 8 µM and the “CytoTox K-562 (GC50)” value (K-562) was 11 µM. The CC50 (HEK293) was greater than 100 µM, the CC50 (HeLa) was greater than 50 µM and the CC50 (HepG2) was greater than 100 µM. The “Stability Plasma (H/M)” value (Stability in plasma (H)) was 107% and the “Stability Plasma (H/M)” value (Stability in plasma (M)) was 97%.

`CN(C(=O)CN1CCN(c2nc(=O)c3cc(C(F)(F)F)cc([N+](=O)[O-])c3s2)CC1)c1ccccc1` [Compound A] showed an MIC (M smeg 5G987; 5G987, molar value in brackets, strain not named, read-out: MIC against Mycobacterium smegmatis) of 0.025 µM, an MIC (M smeg 5G987; [2]) of 0.0125 µg/mL and an MIC (M smeg 5G987; 5G987, read-out: MIC against Mycobacterium smegmatis) of 0.012 µg/mL. The MIC (M aurum SB66) was greater than 100 µg/mL, the “activity against M. aureum strain SB66” value (M aurum SB66) was “neither compound A nor the Reference compound I are active” and the MIC (M fort B) was 0.0125 µg/mL (≈ 0.0246 µM). The MIC (M vaccae 10670) was 0.00312 µg/mL (≈ 0.00615 µM), the MIC [1] was 0.015 µg/mL (≈ 0.0296 µM) and the MIC (M tb MDR (BACTEC); read-out: MIC M tb MDR (BACTEC)) was 0.03 µg/mL (≈ 0.0591 µM). For the same compound, the MIC (M tb MDR (BACTEC); read-out: MIC against MDR M. tuberculosis) was 0.03 µg/mL and 0.059 µM, the “CytoTox HUVEC (GC50)” value (HUVEC; human, 24 h) was 18 µM and the “CytoTox K-562 (GC50)” value (K-562; human, 24 h) was 30 µM. The CC50 at 24 h (Cytotoxicity assay (MTT); HEK293 cells, read-out: CytoTox HEK293 (CC50)) was greater than 100 µM, the CC50 at 24 h (Cytotoxicity assay (MTT); HeLa cells, read-out: CytoTox HeLa (CC50)) was 39 µM and the CC50 at 24 h (Cytotoxicity assay (MTT); HepG2 cells, read-out: CytoTox HepG2 (CC50)) was greater than 100 µM. For the same compound, the “efficacy, life of the treated mice” value (M. tuberculosis H37Rv) was “very effective in this model and significantly prolonged the life of the treated mice”, the solubility at 20 h (physchem) was 12 µM (≈ 6.09 µg/mL) and the “Stability Plasma (H/M)” value (Stability in plasma (H)) was 95%. The “Stability Plasma (H/M)” value (Stability in plasma (M)) was 115%.

`O=c1nc(N2CCN(Cc3ccccc3)CC2)sc2c([N+](=O)[O-])cc(C(F)(F)F)cc12` [Cpd 7 of WO 2009/010163, reference compound] gave an MIC (M smeg 5G987; [2]) of 0.05 µg/mL and an MIC (M fort B) of 0.05 µg/mL (≈ 0.111 µM).
